Experimental data from patent publication US8497285B2, “Therapy of autoimmune colitis using a TIP60 inhibitor” (The Trustees Of The University Of Pennsylvania, priority 2010, dated 2013).

How the values were obtained:
[1] = tested on: Treg suppression of T cell proliferation; test: Treg suppression assay (CFSE T cell proliferation, 3 days, varying Treg:T cell ratios); type: cell-based; conditions: for suppression of Treg in vitro: 500x dilution of 10 mM, 20 micromolar, FIG. 10; for T cell proliferation (percentage of proliferated cells): Treg:Teff=1:1
Text: FIG. 8. are flow cytometry dataplots showing the enhancement of TIP60 inhibitor B7 suppression of Treg in vitro. Individual peaks reflect number of cells divisions under the standard test conditions (3 days), where the cell populations are dyed with CFSE (carboxyfluorescen diacetate, succimidyl ester). FIG. 8A are the data for DMSO without B7; FIG. 8B are the data for B7-1000×; FIG. 8C are the data for B7-4000×; and FIG. 8D are the data for B7-8000. In each case, the 1000×/4000×/8000× refers to the dilution factor of the B7, from an original 10 mM solution of B7; e.g, 1000× represents a solution diluted by a factor of 1000, so as to result in a 10 micromolar solution. The numbers in the upper left corner of the plot (e.g., 88, 81, 74, 65, and 37 of FIG. 8A) refer to the measured percentage of proliferated cells.
FIG. 10. are flow cytometry dataplots showing the enhancement of TIP60 inhibitors B7 suppression of Treg in vitro. FIG. 10A are the data for DMSO without any B7-type inhibitor; FIG. 10B are the data for B7-500×; FIG. 10C are the data for B7A-500×; FIG. 10D are the data for B7B-500; and FIG. 10D are the data for B7C-500×. In each case, the 500× refers to the dilution factor of the B7/B7A/B7B/B7C, from an original 10 mM solution of the compound; e.g, 500× represents a solution diluted by a factor of 500, so as to result in a 20 micromolar solution.
Several exemplary compounds of the present invention were screened at 10 μg/ml in vitro, at varying Treg:T cell ratios, using standard cell proliferation techniques (3 days, using CSFE dyes). Such techniques are well understood by those skilled in the art. For example, see Akimova T, Ge G, Golovina T, Mikheeva T, Wang L, Riley J L, Hancock W W., “Histone/protein deacetylase inhibitors increase suppressive functions of human FOXP3+ Tregs,” Clin Immunol. 2010 September; 136(3):348-63; Tao R, Hancock W W., Resistance of FOXP3+ regulatory T cells to Nur77-induced apoptosis promotes allograft survival,” PLoS One. 2008 May 28; 3(5):e2321; Tao R, Wang L, Murphy K M, Fraser C C, Hancock W W., “Regulatory T cell expression of herpesvirus entry mediator suppresses the function of B and T lymphocyte attenuator-positive effector T cells.,” J. Immunol. 2008 May 15; 180(10):6649-55; and Tao R, de Zoeten E F, Ozkaynak E, Chen C, Wang L, Porrett P M, Li B, Turka L A, Olson E N, Greene M I, Wells A D, Hancock W W., “Deacetylase inhibition promotes the generation and function of regulatory T cells,” Nat. Med. 2007 November; 13(11):1299-307 for the protocols used herein. Each of these references is incorporated by reference herein, at least for this purpose.
T cell proliferation was unimpaired in the absence of Treg cells (see left panels in FIG. 8A-D), but was increasingly impaired at increasing Treg concentration (for example, in FIG. 8A, increasing Treg:Tcell ratio from 0:1 to 1:1 reduced proliferation from 88% to 37% under otherwise identical conditions). […] Efficacy was also seen at 1 μg/ml for some compounds.

FOXP3 = FOXP3 bound on chromatin in SZ-4 T cells (Western blot); type: cell-based; conditions: FIG. 9
TIP60 = biological target: T1, TIP60 (Homo sapiens, UniProt Q92993); test: TIP60 activity by acetylation of TIP60 or its substrate FOXP3 in transfected 293T cells (Ac-K immunoprecipitation, Western blot); type: cell-based; conditions: 4 hours
T1 construct: expressed in transfected cells; host or cells: 293T cells
T1 sequence (Q92993 whole entry, species assumed): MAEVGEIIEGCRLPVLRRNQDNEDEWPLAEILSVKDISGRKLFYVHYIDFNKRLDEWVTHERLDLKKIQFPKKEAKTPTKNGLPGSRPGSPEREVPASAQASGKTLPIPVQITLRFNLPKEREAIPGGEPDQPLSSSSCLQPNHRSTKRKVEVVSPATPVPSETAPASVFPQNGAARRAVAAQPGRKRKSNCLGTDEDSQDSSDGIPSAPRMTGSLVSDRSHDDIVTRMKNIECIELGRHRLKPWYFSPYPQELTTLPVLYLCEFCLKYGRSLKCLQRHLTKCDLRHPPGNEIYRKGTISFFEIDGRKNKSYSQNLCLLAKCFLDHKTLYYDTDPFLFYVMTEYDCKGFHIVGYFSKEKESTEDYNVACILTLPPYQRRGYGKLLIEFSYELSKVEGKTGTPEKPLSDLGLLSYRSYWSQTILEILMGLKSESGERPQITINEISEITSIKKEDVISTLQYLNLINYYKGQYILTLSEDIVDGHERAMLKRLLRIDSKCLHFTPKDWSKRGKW
Procedure: FIG. 11 illustrate the effect of B7G on TIP60. TIP60 activity was assessed by examining acetylation of TIP60 or its substrate FOXP3. Both TIP60 and FOXP3 were overexpressed in 293T cells. Acetylated proteins were first immunoprecipitated with the acetyl-lysine specific antibody Ac-K and then blotted with HRP conjugated antibodies to expression tags (HA for FOXP3 or FLAG for TIP60).
TIP60 is known to have acetyl transferase activity to acetylate itself (auto-acetylation) or substrates including FOXP3. To examine activity of B7G on TIP60, 293T cells were transfected with Flag-tagged TIP60 and HA-tagged FOXP3. 24 hours after transfection, cells were treated with various concentrations of B7G for 4 hours before cell lysates were collected. Acetylated proteins were precipitated by anti-acetyl lysine antibody Ac-K. FOXP3 and TIP60 in the lysate or precipitated by Ac-K antibody were identified by anti-HA-HRP and anti-FLAG-HRP respectively.

[2] = tested on: dextran sodium sulfate (DSS) colitis; test: DSS model of colitis, reversal of established colitis; type: in vivo, mice
Procedure: FIG. 12A-C are the results of experiments described in Example 5. […] FIG. 12C provide graphical data for weight loss, bleeding score, and stool consistency (i.e., higher score reflects higher levels of diarrhea), wherein the mice were first subjected to DSS irritation, then subset populations were remedially treated after 8 days with the compound having Structure B7.
In a first test, the effects of exposure to dextran sodium sulfate (DSS) were evaluated, which results in a partially CD4-dependent inflammatory model of colitis, in wildtype (WT) versus TIP60dn C57BL/6 mice (8 mice/group).
Data were also generated using the compound of Structure B7 in the DSS model, in an experiment designed to test the ability of TIP60 inhibitor therapy to reverse established colitis by waiting until mice had ˜15% weight loss. In marked contrast to use of carrier DMSO alone, TIP60 inhibitor therapy (2 mg/kg/d, i.p.) reversed weight loss (p<0.01), blood in the stool (p<0.01) and diarrhea (p<0.005) (see FIG. 12C) and maintained colon length (p<0.01).

[3] = 2 mg/kg/d i.p., vs carrier DMSO, p<0.01

Cc1ccc2cc(NC(=O)C3CC(=O)N(CCc4ccc(Cl)cc4)C3)ccc2n1 (stereo not drawn) [Compound B7C]
suppression of Treg in vitro [1]: enhancement | FOXP3 bound on chromatin (FOXP3): intervening with FOXP3 bound on chromatin

O=C(Nc1ccc(Cl)cc1)C1CC(=O)N(CCc2ccc(Cl)cc2)C1 (stereo not drawn) [Compound B7A]
suppression of Treg in vitro [1]: enhancement

COc1ccc(CCN2CC(C(=O)Nc3ccc(F)c(Cl)c3)CC2=O)cc1OC (stereo not drawn) [Compound B7G]
Acetylated FOXP3 (TIP60; 32 μg/ml): reduced significantly | Acetylated TIP60 (TIP60; 32 μg/ml): reduced significantly | TIP60 auto-acetylation (TIP60; lower concentration): slightly increase | TIP60 expression level in total cell lysate (TIP60; various concentrations, FLAG-HRP): not significantly affected | FOXP3 expression level in total cell lysate (TIP60; various concentrations, HA-HRP): not significantly affected

COc1ccc(NC(=O)C2CC(=O)N(CCc3ccc(Cl)cc3)C2)cc1 (stereo not drawn) [Compound B7B]
suppression of Treg in vitro [1]: enhancement

Cc1ccc(NC(=O)C2CC(=O)N(CCc3ccc(Cl)cc3)C2)cc1 (stereo not drawn) [Compound B7]
suppression of Treg in vitro [1]: enhancement | Treg activity (decreasing T cell proliferation) ([1]; B7 2.5 to 10 μM, dose dependent): enhanced the Treg activity | T cell proliferation in the absence of Treg cells ([1]; Treg:T cell 0:1, FIG. 8A-D left panels): unimpaired | T cell proliferation (percentage of proliferated cells) ([1]; highest B7 dose 10 μM (FIG. 8B, 1000x dilution)): 25% | T cell proliferation (percentage of proliferated cells) ([1]; intermediate B7 dose (FIG. 8C, 4000x dilution of 10 mM)): 30% | T cell proliferation (percentage of proliferated cells) ([1]; lowest B7 dose (FIG. 8D, 8000x dilution of 10 mM; text: 2.5 μM)): 37% | weight loss ([2]; 2 mg/kg/d i.p., started at ~15% weight loss, vs carrier DMSO, p<0.01): reversed | diarrhea ([2]; 2 mg/kg/d i.p., vs carrier DMSO, p<0.005): reversed | blood in the stool [2, 3]: reversed | colon length [2, 3]: maintained | colon length relative to unstressed control animal ([2]; single animal, 3% DSS then B7): about 94% | spleen size relative to control ([2]; single animal, 3% DSS then B7): comparable in size to that of the control
